Measurements taken from PMC11721617, “Novel isobavachalcone derivatives induce apoptosis and necroptosis in human non-small cell lung cancer H1975 cells” (Journal of Enzyme Inhibition and Medicinal Chemistry, 2023).
Read-outs that look alike come from different tables or passages of the source.

Legend:
H1975 = assay: MTT assay, cytotoxic activity / cell viability; format: cell-based, human; conditions: for viability at 40 µM / IC50: Homo sapiens; for IC50: NCI-H1975
Protocol: (§1) Four cell lines (H1975, A549, PC9, and Aml-12) were cultured in RPMI 1640 medium containing 10% foetal bovine serum (FBS) and 1% penicillin/streptomycin in an atmosphere with 5% CO2 and 95% relative humidity at 37 °C.
(§2) Cell viability was examined using the MTT assay. The cells grown in the logarithmic phase were seeded in 96-well plates at a density of 5 × 10^3 per well. The cells were treated with various concentrations (0, 5, 10, 20, 40, and 80 μM) of the compound at different times, respectively. At the end of time point, MTT solution (5 mg/ml) was added to each well and incubated at 37 °C for 4 h. Next, the media was removed, and formazan was dissolved in DMSO. Finally, absorbance was measured with a microplate spectrophotometer at 490 nm (Synergy HT, BioTek, VT, USA).

A549 = assay: MTT assay, cytotoxic activity; format: cell-based, human; conditions: A549 cells
Protocol: as §1, §2

PC9 = assay: MTT assay, cytotoxic activity; format: cell-based; conditions: Homo sapiens, PC-9, PC9 cells, 72 h
Protocol: as §1, §2

[1] = MTT assay, cytotoxic activity on normal hepatocytes; format: cell-based, mouse; conditions: Aml-12 cells (normal hepatocytes); normal mouse hepatocytes Aml-12 cells, 72 h
Protocol: as §1, §2

Aml-12 cells = assay: as above; format: cell-based, mouse; conditions: Aml-12 cells relative to H1975 cells
Protocol: as §1, §2

H1975 cells [2] = assay: Colony-formation assay; format: cell-based, human; conditions: 10 days
Protocol: Cells were seeded at a density of 1.5 × 10^3 cells/well into 6-well plates. When colonies formed, the media was replaced with fresh media at various concentrations of compound 16 (0, 1, 2, and 4 μM) and incubated for 10 days. At the end of the incubation time, the cells were washed three times with PBS, fixed with 4% paraformaldehyde for 15 min, stained with crystal violet solution for 10 min, and photographed.

H1975 cells [3] = assay: Flow cytometry with Annexin V/PI dual staining; format: cell-based, human; conditions: 24 h
Protocol: Cells were seeded (3 × 10^5 per well) in 6-well plates and incubated overnight. After adherence, the cells were treated with various concentrations (0, 10, 20, 40, and 80 μM) of compound 16 for 24 h. Furthermore, the cells were harvested, washed three times with PBS, and stained with Annexin V (FITC Annexin V) and propidium iodide (PI) staining solution for 30 min in the dark. The percentage of cell death was measured by flow cytometry (Becton-Dickinson, Franklin Lakes, NJ, USA).

H1975 cells [4] = assay: ATP detection; format: cell-based, human; conditions: H1975, 10, 20, 40, and 80 μM, 6 h
Protocol: Cells were seeded in 6-well plates at a density of 3 × 10^5 cells/well and incubated with different concentrations (0, 10, 20, 40, and 80 μM) of compound 16 for 6 h. Afterwards, the cells were washed three times with PBS, lysed with RIPA buffer, and the lysates were centrifuged at 12 000 rpm for 5 min. The intracellular ATP levels were measured using a luminoskan luminometer (Thermo Scientific, Atlanta, GA, USA), according to the ATP assay kit’s protocol.

H1975 cells [5] = assay: Detection of intracellular ROS (DCFH-DA, flow cytometry); format: cell-based, human
Protocol: Cells were seeded in 6-well plates at a density of 3 × 10^5 cells/well and incubated with different concentrations (0, 10, 20, 40, and 80 μM) of compound 16 or pre-treated with NAC (20 μM) incubated for 6 h, the cells were co-incubated with DCFH-DA for 20 min at 37° C in the dark. Finally, the intracellular ROS levels were measured using flow cytometry (Becton-Dickinson, Franklin Lakes, NJ, USA).

[6] = system: Bax, Bcl-2, Akt, Cyt C, caspase-9, caspase-3, RIP1, RIP3, p-RIP3, MLKL, p-MLKL in H1975 cells; assay: Western blotting of apoptosis- and necroptosis-related proteins; format: cell-based, human
Protocol: Cells were seeded in 100 mm dishes at a density of 3 × 10^6 cells/well and treated with different concentrations (0, 10, 20, 40, and 80 μM) of compound 16. After incubated for 24 h, the cells were harvested, and washed three times with PBS solution. Next, the cells were lysed with RIPA lysis buffer for 30 min on ice. Protein quantification was determined using the BCA protein assay kit. Equal amounts of proteins were separated by sodium dodecyl sulfate-polyacrylamide gel electrophoresis (SDS-PAGE) and transferred to PVDF membrane. The membrane was blocked with 5% non-fat milk and incubated with primary antibodies (Bax, Bcl-2, Akt, Cyt C, Caspase-9, Caspase-3, RIP1, RIP3, p-RIP3, MLKL, p-MLKL, and β-actin) for 2 h at room temperature, followed by the secondary antibodies for 2 h at room temperature. Finally, the blots were detected by a chemiluminescent gel imaging system (Bio-Rad, Hercules, CA, USA).

## COc1cc(C(c2cc(C(=O)C=Cc3ccc(O)cc3)c(O)c(CC=C(C)C)c2O)N2CCOCC2)cc(OC)c1OC (centres unmarked) [Compound 16, (E)-1-(2,4-Dihydroxy-3-(3-methylbut-2-en-1-yl)-5-(morpholino(3,4,5-trimethoxyphe-nyl)methyl)phenyl)-3-(4-hydroxyphenyl)prop-2-en-1-one]
H1975; H1975, compound 16 (40 μM) 24 h, pre-treatment with NAC, p < 0.01, Figure 6(F)
  Effect of NAC on compound 16 induced cell death (cell viability): protective effect
H1975; H1975, compound 16 (40 μM) 24 h, pre-treatment with NSA (20 μM), p < 0.01
  Effect of NSA (MLKL inhibitor) on compound 16 induced necroptosis (cell viability): protective effect
H1975; H1975, compound 16 (40 μM) 24 h with pre-treatment with Nec-1 (20 μM), Figure 4(D)
  Cell viability: 25.33%
H1975; NCI-H1975, 24 h, H1975, compound 16 (40 μM) alone, 24 h, Figure 3(C)
  viability at 40 µM: 12.7%
H1975; NCI-H1975, 24 h, H1975, compound 16 (40 μM) alone, 24 h, Figure 4(D)
  viability at 40 µM: 14.8%
H1975; NCI-H1975, H1975, compound 16 (40 μM) 24 h with pre-treatment with z-VAD-FMK (20 μM), Figure 3(C)
  viability at 40 µM: 35.4%
H1975; H1975 cells, 72 h, MTT, read-out: Cytotoxic activity IC50, H1975
  IC50: 4.35 µM
H1975; read-out: IC50 values against H1975 and A549 cell lines (range over both)
  IC50: 4.35 to 15 µM
A549
  Enhancement of cytotoxic effects compared to IBC: 1.53 fold
A549; Homo sapiens, 72 h, MTT
  IC50: 14.2 µM
PC9
  IC50: 16.1 µM
[1]
  IC50 at 72 h: 10.1 ± 0.58 µM
Aml-12 cells
  SI value (selective inhibition): 2.32
H1975 cells [2]; H1975, 1 μM
  Colony formation rate: 51.34%
H1975 cells [2]; H1975, 2 μM
  Colony formation rate: 27.70%
H1975 cells [2]; H1975, 4 μM
  Colony formation rate: 14.87%
H1975 cells [3]; H1975, 10 μM
  Cell death rate (Annexin V/PI): 14.7%
H1975 cells [3]; H1975, 20 μM
  Cell death rate (Annexin V/PI): 22.7%
H1975 cells [3]; H1975, 40 μM
  Cell death rate (Annexin V/PI): 34.3%
H1975 cells [3]; H1975, 80 μM
  Cell death rate (Annexin V/PI): 54.9%
H1975 cells [4]
  Cellular ATP levels: gradually decreased
H1975 cells [5]; H1975, 10 μM, 6 h
  Intracellular ROS level enhancement: 1.86%
H1975 cells [5]; H1975, 20 μM, 6 h
  Intracellular ROS level enhancement: 2.21%
H1975 cells [5]; H1975, 40 μM, 6 h
  Intracellular ROS level enhancement: 3.74%
H1975 cells [5]; H1975, 80 μM, 6 h
  Intracellular ROS level enhancement: 5.82%
H1975 cells [5]; H1975, compound 16 (40 μM) alone, Figure 6(E)
  Intracellular ROS level enhancement: 3.75%
H1975 cells [5]; H1975, compound 16 (40 μM) in combination with NAC (20 μM), Figure 6(E)
  Intracellular ROS level enhancement: 2.02%
[6]; H1975, 20, 40, and 80 µM
  RIP1 protein levels: down-regulation
[6]; H1975, 24 h
  Bax and Cyt C expression: increasing
  Bcl-2 and Akt protein levels: decreasing
  Caspase-9 and -3: cleaving
  Expression of RIP3, p-RIP3, MLKL, and p-MLKL protein levels: increased
